Test results published in patent US20260284082A1, “TARGETING THE PANX1-P2Y2R-TRPV4 PATHWAY TO TREAT LUNG ISCHEMIA-REPERFUSION INJURY” (UNIVERSITY OF VIRGINIA PATENT FOUNDATION, priority 2023, published 2026).

Experiments:
[1] = system: TRPV4 channels; conditions: CPA 20 μM as used; cited from earlier work
[2] = system: eATP efflux through Panx1 channels; test: Luciferase assay for eATP release from small PAs; format: cell-based, mouse; conditions: GSK101 10 nM
Protocol: Luciferase assay for total ATP release: Small Pas were cut open and pinned down en face on a Sylgard block. Pas were then placed in black, opaque 96-well plates and incubated in HEPES-PSS for 10 minutes at 37° C., followed by incubation with the ectonucleotidase inhibitor ARL 67156 (300 μmol/L; Tocris Bioscience, Minneapolis, MN) for 30 minutes at 37° C. A 50-μL aliquot of each sample was transferred to another black, opaque 96-well plate, and ATP was measured using an ATP Bioluminescence HSII kit (Roche Applied Science, Penzberg, Germany).^5 Briefly, 50 μL of the luciferase reagent, luciferin, provided in the assay kit (Roche Applied Science), was added to each well and. following a 5-second orbital mix, luminescence was recorded using a luminometer (FluoStar Omega). ATP concentrations were calculated by reference to an ATP standard curve.

[3] = human, in vivo; cited from earlier work
[4] = system: pulmonary endothelium of small PAs; test: Baseline endothelial Ca2+ signaling in en face small PAs after lung IR (Fluo-4 confocal imaging); format: cell-based, mice; conditions: apyrase 10 U/mL; small PAs after lung IR
Protocol: (§1) Murine lung IR model: A well-established left lung IRI model involving temporary in vivo ligation of the left hilum (pulmonary artery, vein, and airway) was used.^6 Briefly, mice were anesthetized with inhaled isoflurane, intubated, ventilated with room air at 150 strokes/min with a tidal volume of […] (Harvard Apparatus Co, South Natick, MA), and heparinized (20 U/kg: Hospira Inc, Lake Forest, IL). An anterolateral thoracotomy was performed through the fourth intercostal space to expose the left hilum. A 6-0 Prolene suture (Ethicon. Somerville, NJ) was passed around the left hilum, and the suture ends were passed through a 5-mm length of polyethylene (PE)-50 tubing. A surgical clip was used to fashion a Rummel tourniquet to provide temporary occlusion of the left hilar structures. The thoracotomy was closed, anesthesia was weaned, and analgesia was administered (intraperitoneal buprenorphine. 0.2 mg/kg). Animals recovered in their cages during the 1-hour ischemic period, after which they were anesthetized again and intubated, the Rummel tourniquet was removed, and the thoracotomy was closed. Animals were again extubated, recovered in their cage, and monitored during the 2-hour reperfusion period. Sham animals underwent the same surgical procedure except that application of the Rummel tourniquet to induce ischemia was omitted; thus, these animals were perfused for a total of 3 hours.
Ca^2+ imaging in Pas: Ca^2+ imaging in small Pas was performed as previously described.8 Fourth-order, small (~50 μm diameter) Pas (see FIG. 1B) were dissected from left lungs in cold HEPES-buffered physiological salt solution (HEPES-PSS; 10 mM HEPES, 134 mM NaCl, 6 mM KCl, 1 mM MgCl2 hexahydrate, 2 mM CaCl2) dihydrate, and 7 mM dextrose; pH adjusted to 7.4 using 1 M NaOH). […] Fluo-4 was excited using a 488-nm solid-state laser, and emitted fluorescence was captured using a 525/36-nm band-pass filter. […] Baseline Ca^2+ signaling activity was recorded in the absence of CPA. […]

[5] = system: TRPV4EC channels; test: TRPV4 sparklet activity in endothelium of small PAs after lung IR (in presence of CPA); format: cell-based, mice; conditions: apyrase 10 U/mL; small PAs after lung IR
Protocol: as §1, with “Sham animals underwent the same surgical procedure except that application of the Rummel tourniquet to induce ischemia was omitted; thus, these animals were perfused for a total of 3 hours.” left out
Ca^2+ imaging in Pas: Ca^2+ imaging in small Pas was performed as previously described.8 Fourth-order, small (~50 μm diameter) Pas (see FIG. 1B) were dissected from left lungs in cold HEPES-buffered physiological salt solution (HEPES-PSS; 10 mM HEPES, 134 mM NaCl, 6 mM KCl, 1 mM MgCl2 hexahydrate, 2 mM CaCl2) dihydrate, and 7 mM dextrose; pH adjusted to 7.4 using 1 M NaOH). […] Fluo-4 was excited using a 488-nm solid-state laser, and emitted fluorescence was captured using a 525/36-nm band-pass filter. […] Baseline Ca^2+ signaling activity was recorded in the absence of CPA.
TRPV4 sparklets were assessed as increases in fluorescence relative to baseline fluorescence, obtained by averaging 10 quiescent images prior to stimulation. […]

CC(=O)C1=C(O)[C@@H]2[C@H]3c4c[nH]c5cccc(c45)C[C@H]3C(C)(C)N2C1=O [CPA, Cyclopiazonic acid]
effect of CPA by itself on activity of TRPV4 channels [1]: does not alter

CC(C)C[C@H](NC(=O)c1cc2ccccc2s1)C(=O)N1CCN(C(=O)[C@H](CO)NS(=O)(=O)c2ccc(Cl)cc2Cl)CC1 [GSK101, GSK1016790A]
eATP efflux through Panx1 channels (eATP release from small PAs) [2]: increased

CC(C)(O)c1cnc(N2C[C@@]3(CCC[C@](C)(Cn4cnc5ccc(C#N)cc54)C3)OC2=O)cn1 [GSK2798745]
tolerability [3]: well tolerated

apyrase
IR-induced increase in baseline Ca2+ signaling activity [4]: abolished
IR-induced increase in TRPV4EC channel activity [5]: abolished
